Reference: patent publication US6316020A, “Pharmaceutical formulations” (priority 2000, dated 2001)

Assay: Solubility assessment as a function of HPβCD concentration
Type: physicochemical
Details: water
Description: Solubility studies were performed by the addition of a known mass of 5(6)-methoxy-2-[[(4-methoxy-3,5-dimethyl-2-pyridinyl)-methyl]sulfinyl]-1H- benzimidazole and/or HP CD to a given volume of solvent system. Solubilities were determined by observation, as the maximum concentration at which 5(6)-methoxy-2-[[(4-methoxy-3,5-dimethyl-2-pyridinyl)-methyl]sulfinyl]-1H- benzimidazole completely dissolved. Additionally, concentrations of 5(6)-methoxy-2-[[(4-methoxy-3,5-dimethyl-2-pyridinyl)-methyl]sulfinyl]-1H- benzimidazole and HP C D at set molar ratios were solubilized in systems of high pH (adjusted as high as 12.2, with 1N NaOH), the pH was adjusted (using 2N HCl) in a stepwise downward manner until precipitation occurred.
The solubility of 5(6)-methoxy-2-[[(4-methoxy-3,5-dimethyl-2-pyridinyl)-methyl]sulfinyl]-1H- benzimidazole was assessed as a function of HPβCD concentration in water.
The procedure according to Example 86 was repeated except that water with a borate buffer (pH of 8) was employed.
The procedure according to Example 86 was repeated except that water with a phosphate buffer (pH of 11) was employed.

SMILES: COc1ccc2[nH]c([S+]([O-])Cc3ncc(C)c(OC)c3C)nc2c1 (centres unmarked) [5(6)-methoxy-2-[[(4-methoxy-3,5-dimethyl-2-pyridinyl)-methyl]sulfinyl]-1H-benzimidazole]
- Solubility as a function of HPβCD concentration: increase linearly as a function of HPβCD concentration
- influence of pH on solubility: influenced by solution pH
